The subject of assay [1] is hypertension and congestive heart failure. As to conditions: cited from earlier work.
For another assay, the target named is T1, angiotensin II receptor (Oryctolagus cuniculus, UniProt P34976).
T1 construct: Main abdominal aortas were removed and placed in Krebs-Henseleit buffer; from tissue; host or cells: main abdominal aorta rings (3 mm) of female New Zealand White rabbits
T1 sequence (P34976 1-359): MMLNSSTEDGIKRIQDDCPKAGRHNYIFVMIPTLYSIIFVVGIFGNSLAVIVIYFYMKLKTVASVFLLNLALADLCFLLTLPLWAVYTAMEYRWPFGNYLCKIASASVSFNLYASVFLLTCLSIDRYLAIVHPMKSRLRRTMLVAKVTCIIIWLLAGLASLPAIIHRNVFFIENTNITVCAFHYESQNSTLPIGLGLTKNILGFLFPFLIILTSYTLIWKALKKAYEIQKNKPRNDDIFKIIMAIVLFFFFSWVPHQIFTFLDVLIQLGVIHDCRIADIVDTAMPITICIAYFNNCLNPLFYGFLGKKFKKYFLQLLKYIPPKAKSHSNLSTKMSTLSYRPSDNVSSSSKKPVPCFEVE
Briefly: Angiotensin II functional assay: antagonism of contraction of rabbit aorta (isolated tissue, Schild analysis). More on the design: species or system rabbit (female New Zealand White). Conditions: antagonist incubated 30 minutes, negative logarithm of antagonist concentration that requires doubling of the angiotensin II concentration; for Kb: read-out: pA2 (converted). Here is the method: Antagonism of Contraction of Rabbit Aorta The protocol reported by A. T Chiu and […]. Wong, et al. Hypertension, 13, 489-497 (1989)) was followed with a few modifications. Female New Zealand White rabbits weighing 2-5 kg were sedated with carbon dioxide and then sacrificed. Main abdominal aortas were removed and placed in Krebs-Henseleit buffer at room temperature. The tissues were cleaned of extraneous connective tissue, cut into 3 mm rings, and suspended within a 10 mL tissue bath. All dilutions of peptide preparations were made with 0.3% aqueous BSA. The tissues were primed with 55 mM potassium chloride. Tissues were pre-loaded with 1 g of tension. Tension was recorded on a model 7 Grass polygraph using FT03 transducers. At the end of the equilibrium period, a control cumulative concentration-contractile response curve for angiotensin II (A II: 1×10^-10 -10^-8 M) was obtained. The tissue was washed several times until the baseline was reached. Forty five minutes later, test compound (antagonist) was added and the tissue was incubated for 30 minutes. The concentration-response curve for A II was then repeated in the presence of the test compound. One dose of antagonist was tested per tissue only. […] All responses to the control agonist were calculated as a percentage of the maximum response.

For the molecule `CCOC(=O)[C@H](CCc1ccccc1)N[C@@H](C)C(=O)N1CCC[C@H]1C(=O)O` [enalapril], the clinical efficacy entry in assay [1] was “clinical efficacy in treating hypertension and congestive heart failure”.
As to `C[C@H](CS)C(=O)N1CCC[C@H]1C(=O)O` [captopril], the clinical efficacy result in assay [1] is “clinical efficacy in treating hypertension and congestive heart failure”.
Consider `CCCCN(Cc1ccc(-c2ccccc2-c2nn[nH]n2)cc1)c1ncc(C(=O)O)cn1` [Example 167, 2-{N-Butyl-N-[(2'-[1H-tetrazol-5-yl]biphenyl-4-yl)methyl]amino}pyrimidine-5-carboxylic acid], for which the Kb on angiotensin II receptor was 3.31 nM.
On the same count and under the same terms, to `O=C(O)c1cccnc1NCc1ccc(-c2ccccc2-c2nn[nH]n2)cc1` [Example 226] belongs 1.29 nM; to `CCCN(Cc1ccc(-c2ccccc2-c2nnn[nH]2)cc1)c1ncccc1C(=O)C(F)(F)C(=O)OCC` [Example 137, 3-[2,2-Difluoro-2-(ethoxycarbonyl)acetyl]-2-{N-propyl-N-[(2'-[1H-tetrazol-5-yl]biphenyl-4-yl]methyl]amino}pyridine], 4.57 nM.
As a reminder, the pA2 is the negative logarithm of the molar antagonist concentration that doubles the agonist concentration needed for the same response. For `CCCN(Cc1ccc(-c2ccccc2-c2nnn[nH]2)cc1)c1nc(C)ncc1C(=O)O` [Example 99, 2-Methyl-4-{N-propyl-N-[(2'-[1H-tetrazol-5-yl]biphenyl-4-yl)methyl]amino}pyrimidine-5-carboxylic acid], the pA2 at angiotensin II receptor is 9.60.
Take `CCCCN(Cc1ccc(-c2ccccc2-c2nn[nH]n2)cc1)c1nnccc1C(=O)O` [Example 169, 3-{N-Butyl-N-[(2'-[1H-tetrazol-5-yl]biphenyl-4-yl)methyl]amino}pyridazine-4-carboxylic acid]: at angiotensin II receptor, the Kb was 0.0891 nM.
Same read-out and setting: to `CCCN(Cc1ccc(-c2ccccc2-c2nn[nH]n2)cc1)c1ncccc1C(O)C(F)(F)C(=O)OCC` (centres unmarked) [Example 135, 3-(2.2-Difluoro-2-ethoxycarbonyl-1-hydroxyethyl)-2-{N-propyl-N-[(2'-[1H-tetrazol-5-yl]biphenyl-4-yl)methyl]amino}pyridine] belongs 3.39 nM; to `CCCN(Cc1ccc(-c2ccccc2-c2nn[nH]n2)cc1)c1ncccc1C(O)CC(=O)O` (centres unmarked) [Example 140, 3-(2-Carboxy-1-hydroxyethyl)-2-{N-propyl-N-[(2'-[1H-tetrazol-5-yl]biphenyl-4-yl)methyl]amino}pyridine], 1.45 nM; to `CCCCN(Cc1ccc(-c2ccccc2-c2nnn[nH]2)cc1)c1nc(F)ccc1C(=O)O` [Example 162, 2-{N-Butyl-N-[(2'-[1H-tetrazol-5-yl]biphenyl-4-yl)methyl]amino}-6-fluoropyridine-3-carboxylic acid], 0.309 nM.
Still for that read-out and setting: to `CCCN(Cc1ccc(-c2ccccc2-c2nn[nH]n2)cc1)c1nnccc1C(=O)O` [Example 172, 3-{N-Propyl-N-[(2'-[1H-tetrazol-5-yl]biphenyl-4-yl)methyl]amino}pyridazine-4-carboxylic acid] belongs 0.214 nM.
Consider `CCCCN(Cc1ccc(-c2ccccc2-c2nn[nH]n2)cc1)c1ncccc1C(=O)O` [Example 229, 2-{N-Butyl-N-[(2'-[1H-tetrazol-5-yl]biphenyl-4-yl)methyl]amino}pyridine-3-carboxylic acid], for which, on angiotensin II receptor, the Kb is 0.339 nM.
Consider `COc1ccc(C[C@H](NC(=O)CC(C)(C)N)C(=O)N[C@@H](Cc2cnc[nH]2)C(=O)N[C@@H](CC2CCCCC2)[C@@H](O)[C@@H](O)CC(C)C)cc1` [enalkiren], for which, in assay [1], the clinical efficacy result was “clinical efficacy in treating hypertension and congestive heart failure”.
Turning to `CCCN(Cc1ccc(-c2ccccc2-c2nn[nH]n2)cc1)c1nc(C(F)(F)F)ncc1C(=O)O` [Example 114, 2-Trifluoromethyl-4-{N-propyl-N-[(2'-[1H-tetrazol-5-yl]biphenyl-4-yl)methyl]amino}pyrimidine-5-carboxylic acid], the Kb on angiotensin II receptor was 1.62 nM.
